Source: patent publication EP4810052A2, “HCRHR2 SELECTIVE POLYPEPTIDES” (Gubra A/S, priority 2023, dated 2026)
Read-outs that look alike come from different tables or passages of the source. Starred links: 1 amine or outer side, 2 acyl side, 3 side chain; linkers in the order of their positions; H or OH if unused. Non-standard residues stand in square brackets, D forms with d. Residues, ends and D or L forms follow the SMILES beside them. Groups on a side chain read outwards from the residue. *: point of attachment. C20 diacid = O=C(O)CCCCCCCCCCCCCCCCCCC(=O)*; γGlu = O=C(O)[C@H](CCC(=O)[*:2])N[*:1]; NMeI = CC[C@H](C)[C@H](NC)C(=O)O; Nle = CCCC[C@H](N)C(=O)O; AEEA = NCCOCCOCC(=O)O; Aib = CC(C)(N)C(=O)O

Columns and labels:
hCRHR2 = target: T1, hCRHR2 (Homo sapiens, UniProt Q13324); assay: HTRF cAMP assay, determination of hCRHR2 potency (peptide libraries 5 conc., purified peptides 11 conc.); type: cell-based
T1 sequence (Q13324 1-411): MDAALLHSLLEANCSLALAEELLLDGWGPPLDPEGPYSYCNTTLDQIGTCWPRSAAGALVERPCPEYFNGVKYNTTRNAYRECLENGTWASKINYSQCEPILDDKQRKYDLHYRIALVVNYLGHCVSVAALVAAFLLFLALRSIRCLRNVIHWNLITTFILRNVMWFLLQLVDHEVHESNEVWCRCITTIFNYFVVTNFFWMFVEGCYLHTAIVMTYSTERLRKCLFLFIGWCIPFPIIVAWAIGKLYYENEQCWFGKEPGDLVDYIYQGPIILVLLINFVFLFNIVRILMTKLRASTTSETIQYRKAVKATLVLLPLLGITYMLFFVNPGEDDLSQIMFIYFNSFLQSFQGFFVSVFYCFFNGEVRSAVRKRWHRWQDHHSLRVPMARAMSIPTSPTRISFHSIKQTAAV
Outline: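 CHO-K1 cells stably expressing human CRHR2, thawed from frozen stocks just before use and run in suspension; cAMP measured by competitive HTRF immunoassay (cryptate anti-cAMP, d2-cAMP). Agonist peptides tested at 5 (libraries) or 11 (purified) concentrations; EC50 from sigmoid variable-slope nonlinear regression.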

hCRHR1 = target: T2, hCRHR1 (Homo sapiens, UniProt P34998); assay: HTRF cAMP assay, determination of hCRHR1 potency (peptide libraries 5 conc., purified peptides 11 conc.); type: cell-based
T2 sequence (P34998 24-415): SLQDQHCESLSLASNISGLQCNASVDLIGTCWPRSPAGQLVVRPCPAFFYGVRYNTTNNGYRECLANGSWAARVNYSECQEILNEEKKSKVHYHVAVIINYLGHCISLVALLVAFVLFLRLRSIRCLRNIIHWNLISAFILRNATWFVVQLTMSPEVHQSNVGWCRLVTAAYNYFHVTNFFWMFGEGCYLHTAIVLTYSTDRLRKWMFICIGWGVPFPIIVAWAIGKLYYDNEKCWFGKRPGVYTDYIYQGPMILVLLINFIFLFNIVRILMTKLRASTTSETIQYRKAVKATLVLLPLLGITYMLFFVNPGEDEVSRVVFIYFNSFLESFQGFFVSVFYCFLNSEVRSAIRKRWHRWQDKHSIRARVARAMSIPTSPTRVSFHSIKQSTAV
Outline: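 CHO-K1 cells stably expressing human CRHR1, thawed from frozen stocks just before use, were stimulated in suspension with agonist peptides. cAMP was measured by HTRF competitive immunoassay (cryptate anti-cAMP antibody vs d2-cAMP).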

[1] = Table 3, matched molecular pairs X^38 L vs Nle, peptide library of Example 4, read-out: hCRHR2 pEC50 (converted)
[2] = Table 3, matched molecular pairs X^38 L vs Nle, peptide library of Example 4, read-out: hCRHR1 pEC50 (converted)

Row | SMILES | EC50 (hCRHR2; [1]) [nM] | EC50 (hCRHR1; [2]) [nM] | further results
1 | CCCC[C@H](NC(=O)[C@@H](NC(=O)[C@H](CCC(=O)O)NC(=O)C(C)(C)NC(=O)[C@H](CC(N)=O)NC(=O)[C@@H](NC(=O)[C@H](CCCCNC(=O)COCCOCCNC(=O)COCCOCCNC(=O)CC[C@H](NC(=O)CC[C@H](NC(=O)CCCCCCCCCCCCCCCCCCC(=O)O)C(=O)O)C(=O)O)NC(=O)[C@H](C)NC(=O)[C@H](CCC(N)=O)NC(=O)[C@H](CCC(=O)O)NC(=O)[C@H](CCCNC(=N)N)NC(=O)[C@H](C)NC(=O)[C@H](C)NC(=O)[C@H](CCCNC(=N)N)NC(=O)[C@H](C)NC(=O)[C@H](CCCNC(=N)N)NC(=O)[C@H](C)NC(=O)[C@H](CCC(N)=O)NC(=O)[C@H](CCCCN)NC(=O)[C@H](CC(C)C)NC(=O)[C@H](CC(C)C)NC(=O)[C@@H](NC(=O)[C@H](CCC(N)=O)NC(=O)[C@H](CC(C)C)NC(=O)[C@H](CC(C)C)NC(=O)CNC(=O)[C@@H](NC(=O)[C@@H]1CCCN1C(=O)[C@@H](NC(=O)[C@H](CC(=O)O)NC(=O)[C@H](CC(C)C)NC(=O)[C@H](CO)NC(=O)[C@H](CC(C)C)NC(=O)[C@@H](NC(=O)[C@@H](NC)[C@@H](C)CC)C(C)C)C(C)C)[C@@H](C)CC)[C@@H](C)CC)[C@@H](C)O)[C@@H](C)CC)C(=O)N[C@@H](C)C(=O)N[C@@H](CCC(=O)O)C(=O)N[C@H](C(N)=O)C(C)C [compound 230] (H-[NMeI]VLSLDVPIGLLQILLKQARARAAREQAK([AEEA-AEEA-γGlu-γGlu-C20 diacid])TN[Aib]EI[Nle]AEV-NH2) |  |  | EC50 (hCRHR2; Table 4, library peptides having X^38 = Nle, read-out: hCRHR2 pEC50 (converted)): 0.0501 nM; EC50 (hCRHR1; Table 4, library peptides having X^38 = Nle, read-out: hCRHR1 pEC50 (converted)): 31600 nM
2 | CCCC[C@H](NC(=O)[C@@H](NC(=O)[C@H](CCC(=O)O)NC(=O)[C@H](C)NC(=O)[C@H](CC(N)=O)NC(=O)[C@@H](NC(=O)[C@H](CCCCNC(=O)COCCOCCNC(=O)COCCOCCNC(=O)CC[C@H](NC(=O)CC[C@H](NC(=O)CCCCCCCCCCCCCCCCCCC(=O)O)C(=O)O)C(=O)O)NC(=O)[C@H](C)NC(=O)[C@H](CCC(=O)O)NC(=O)[C@H](CCC(=O)O)NC(=O)[C@H](CCCNC(=N)N)NC(=O)[C@H](CCC(N)=O)NC(=O)[C@H](CO)NC(=O)[C@H](CCCNC(=N)N)NC(=O)[C@H](C)NC(=O)[C@H](CCCNC(=N)N)NC(=O)[C@H](C)NC(=O)[C@H](CCC(N)=O)NC(=O)[C@H](CCC(=O)O)NC(=O)[C@H](CC(C)C)NC(=O)[C@H](CC(C)C)NC(=O)[C@@H](NC(=O)[C@H](CCC(N)=O)NC(=O)[C@H](CC(C)C)NC(=O)[C@H](CC(C)C)NC(=O)CNC(=O)[C@@H](NC(=O)[C@@H]1CCCN1C(=O)[C@@H](NC(=O)[C@H](CC(=O)O)NC(=O)[C@H](CC(C)C)NC(=O)[C@H](CO)NC(=O)[C@H](CC(C)C)NC(=O)[C@@H](NC(=O)[C@@H](N)[C@@H](C)CC)C(C)C)C(C)C)[C@@H](C)CC)[C@@H](C)CC)[C@@H](C)O)[C@@H](C)CC)C(=O)N[C@@H](C)C(=O)N[C@@H](CCC(=O)O)C(=O)N[C@H](C(N)=O)C(C)C [compound 71] (H-IVLSLDVPIGLLQILLEQARARSQREEAK([AEEA-AEEA-γGlu-γGlu-C20 diacid])TNAEI[Nle]AEV-NH2) |  |  | EC50 (hCRHR2; library peptides, matched molecular pairs L vs Nle in position X^38, read-out: Potency hCRHR2 pEC50 (converted)): 0.631 nM; EC50 (hCRHR1; library peptides, matched molecular pairs L vs Nle in position X^38, read-out: Potency hCRHR1 pEC50 (converted)): 100000 nM
3 | CC[C@H](C)[C@H](N)C(=O)N[C@H](C(=O)N[C@@H](CC(C)C)C(=O)N[C@@H](CO)C(=O)N[C@@H](CC(C)C)C(=O)N[C@@H](CC(=O)O)C(=O)N[C@H](C(=O)N1CCC[C@H]1C(=O)N[C@H](C(=O)NCC(=O)N[C@@H](CC(C)C)C(=O)N[C@@H](CC(C)C)C(=O)N[C@@H](CCC(N)=O)C(=O)N[C@H](C(=O)N[C@@H](CC(C)C)C(=O)N[C@@H](CC(C)C)C(=O)N[C@@H](CCC(=O)O)C(=O)N[C@@H](CCC(N)=O)C(=O)N[C@@H](C)C(=O)N[C@@H](CCCNC(=N)N)C(=O)N[C@@H](C)C(=O)N[C@@H](CCCNC(=N)N)C(=O)N[C@@H](C)C(=O)N[C@@H](CC(C)C)C(=O)N[C@@H](CCCNC(=N)N)C(=O)N[C@@H](CCC(N)=O)C(=O)N[C@@H](CCC(=O)O)C(=O)N[C@@H](C)C(=O)N[C@@H](CCCCNC(=O)COCCOCCNC(=O)COCCOCCNC(=O)CC[C@H](NC(=O)CC[C@H](NC(=O)CCCCCCCCCCCCCCCCCCC(=O)O)C(=O)O)C(=O)O)C(=O)N[C@H](C(=O)N[C@@H](CC(N)=O)C(=O)N[C@@H](C)C(=O)N[C@@H](CCC(=O)O)C(=O)N[C@H](C(=O)N[C@@H](CC(C)C)C(=O)N[C@@H](C)C(=O)N[C@@H](CCC(=O)O)C(=O)N[C@H](C(N)=O)C(C)C)[C@@H](C)CC)[C@@H](C)O)[C@@H](C)CC)[C@@H](C)CC)C(C)C)C(C)C [SEQ ID NO: 37] (H-IVLSLDVPIGLLQILLEQARARALRQEAK([AEEA-AEEA-γGlu-γGlu-C20 diacid])TNAEILAEV-NH2) | 3.16 | 158000 | 

Second part, led by results:

Row | EC50 (hCRHR2; [1]) [nM] | EC50 (hCRHR1; [2]) [nM] | SMILES | further results
4 | 0.398 | 63100 | CCCC[C@H](NC(=O)[C@@H](NC(=O)[C@H](CCC(=O)O)NC(=O)[C@H](C)NC(=O)[C@H](CC(N)=O)NC(=O)[C@@H](NC(=O)[C@H](CCCCNC(=O)COCCOCCNC(=O)COCCOCCNC(=O)CC[C@H](NC(=O)CC[C@H](NC(=O)CCCCCCCCCCCCCCCCCCC(=O)O)C(=O)O)C(=O)O)NC(=O)[C@H](C)NC(=O)[C@H](CCC(=O)O)NC(=O)[C@H](CCC(N)=O)NC(=O)[C@H](CCCNC(=N)N)NC(=O)[C@H](CC(C)C)NC(=O)[C@H](C)NC(=O)[C@H](CCCNC(=N)N)NC(=O)[C@H](C)NC(=O)[C@H](CCCNC(=N)N)NC(=O)[C@H](C)NC(=O)[C@H](CCC(N)=O)NC(=O)[C@H](CCC(=O)O)NC(=O)[C@H](CC(C)C)NC(=O)[C@H](CC(C)C)NC(=O)[C@@H](NC(=O)[C@H](CCC(N)=O)NC(=O)[C@H](CC(C)C)NC(=O)[C@H](CC(C)C)NC(=O)CNC(=O)[C@@H](NC(=O)[C@@H]1CCCN1C(=O)[C@@H](NC(=O)[C@H](CC(=O)O)NC(=O)[C@H](CC(C)C)NC(=O)[C@H](CO)NC(=O)[C@H](CC(C)C)NC(=O)[C@@H](NC(=O)[C@@H](N)[C@@H](C)CC)C(C)C)C(C)C)[C@@H](C)CC)[C@@H](C)CC)[C@@H](C)O)[C@@H](C)CC)C(=O)N[C@@H](C)C(=O)N[C@@H](CCC(=O)O)C(=O)N[C@H](C(N)=O)C(C)C [SEQ ID NO: 38] (H-IVLSLDVPIGLLQILLEQARARALRQEAK([AEEA-AEEA-γGlu-γGlu-C20 diacid])TNAEI[Nle]AEV-NH2) | 
5 | 0.1 | 1260 | CCCC[C@H](NC(=O)[C@@H](NC(=O)[C@H](CCC(=O)O)NC(=O)[C@H](C)NC(=O)[C@H](CC(N)=O)NC(=O)[C@@H](NC(=O)[C@H](CCCCNC(=O)COCCOCCNC(=O)COCCOCCNC(=O)CC[C@H](NC(=O)CC[C@H](NC(=O)CCCCCCCCCCCCCCCCCCC(=O)O)C(=O)O)C(=O)O)NC(=O)[C@H](C)NC(=O)[C@H](CCC(N)=O)NC(=O)[C@H](CCC(=O)O)NC(=O)[C@H](CCCNC(=N)N)NC(=O)[C@H](C)NC(=O)[C@H](C)NC(=O)[C@H](CCC(N)=O)NC(=O)[C@H](C)NC(=O)[C@H](CCCNC(=N)N)NC(=O)[C@H](C)NC(=O)[C@H](CCC(N)=O)NC(=O)[C@H](CCC(=O)O)NC(=O)[C@H](CC(C)C)NC(=O)[C@H](CC(C)C)NC(=O)[C@@H](NC(=O)[C@H](CCC(N)=O)NC(=O)[C@H](CC(C)C)NC(=O)[C@H](CC(C)C)NC(=O)CNC(=O)[C@@H](NC(=O)[C@@H]1CCCN1C(=O)[C@@H](NC(=O)[C@H](CC(=O)O)NC(=O)[C@H](CC(C)C)NC(=O)[C@H](CO)NC(=O)[C@H](CC(C)C)NC(=O)[C@@H](NC(=O)[C@@H](N)[C@@H](C)CC)C(C)C)C(C)C)[C@@H](C)CC)[C@@H](C)CC)[C@@H](C)O)[C@@H](C)CC)C(=O)N[C@@H](C)C(=O)N[C@@H](CCC(=O)O)C(=O)N[C@H](C(N)=O)[C@@H](C)CC [SEQ ID NO: 44] (H-IVLSLDVPIGLLQILLEQARAQAAREQAK([AEEA-AEEA-γGlu-γGlu-C20 diacid])TNAEI[Nle]AEI-NH2) | 
